Reference: the supplement of paper PMC10307832

What was measured:
Experiment in all cases: relative viability (nuclei count vs DMSO), 5 days (fraction); higher = more cells survive
Dinaciclib + Palbociclib = compound: CCc1cnn2c(NCc3ccc[n+]([O-])c3)cc(N3CCCC[C@H]3CCO)nc12 [Dinaciclib] + CC(=O)c1c(C)c2cnc(Nc3ccc(N4CCNCC4)cn3)nc2n(C2CCCC2)c1=O [Palbociclib] (partner 0.5 µM)
Outline: (§1)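 Each reported value is a median over duplicate plates. It expresses relative viability: treated-well nuclei count divided by vehicle-well nuclei count. Lung cancer cell lines in 1536-well plates were dosed by pin tool a day after seeding, alone with one drug or with a fixed anchor-drug dose plus five library-drug doses (not always all listed) in √10 steps, and nuclei were counted after 5 days.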

Dinaciclib + Bortezomib = compound: CCc1cnn2c(NCc3ccc[n+]([O-])c3)cc(N3CCCC[C@H]3CCO)nc12 [Dinaciclib] + CC(C)C[C@H](NC(=O)[C@H](Cc1ccccc1)NC(=O)c1cnccn1)B(O)O [Bortezomib] (partner 0.002 µM)
Outline: as §1

Dinaciclib + Lapatinib = compound: CCc1cnn2c(NCc3ccc[n+]([O-])c3)cc(N3CCCC[C@H]3CCO)nc12 [Dinaciclib] + CS(=O)(=O)CCNCc1ccc(-c2ccc3ncnc(Nc4ccc(OCc5cccc(F)c5)c(Cl)c4)c3c2)o1 [Lapatinib] (partner 2 µM)
Outline: as §1

Dinaciclib + Pictilisib = compound: CCc1cnn2c(NCc3ccc[n+]([O-])c3)cc(N3CCCC[C@H]3CCO)nc12 [Dinaciclib] + CS(=O)(=O)N1CCN(Cc2cc3nc(-c4cccc5[nH]ncc45)nc(N4CCOCC4)c3s2)CC1 [Pictilisib] (partner 1 µM)
Outline: as §1

Dinaciclib + Pemetrexed = compound: CCc1cnn2c(NCc3ccc[n+]([O-])c3)cc(N3CCCC[C@H]3CCO)nc12 [Dinaciclib] + Nc1nc2[nH]cc(CCc3ccc(C(=O)N[C@@H](CCC(=O)O)C(=O)O)cc3)c2c(=O)[nH]1 [Pemetrexed] (partner 0.2 µM)
Outline: as §1

Cell Line: PC-3 [JPC-3]
- relative viability (Dinaciclib + Palbociclib; first compound 0.009487 µM): 0.535
- relative viability (Dinaciclib + Palbociclib; first compound 0.03 µM): 0.489
- relative viability (Dinaciclib + Palbociclib; first compound 0.09487 µM): 0.365
- relative viability (Dinaciclib + Palbociclib; first compound 0.3 µM): 0.29
- relative viability (Dinaciclib + Bortezomib; first compound 0.009487 µM): 0.679
- relative viability (Dinaciclib + Bortezomib; first compound 0.03 µM): 0.791
- relative viability (Dinaciclib + Bortezomib; first compound 0.09487 µM): 0.226
- relative viability (Dinaciclib + Bortezomib; first compound 0.3 µM): 0.231
- relative viability (Dinaciclib + Lapatinib; first compound 0.009487 µM): 0.431
- relative viability (Dinaciclib + Lapatinib; first compound 0.03 µM): 0.419
- relative viability (Dinaciclib + Lapatinib; first compound 0.09487 µM): 0.365
- relative viability (Dinaciclib + Lapatinib; first compound 0.3 µM): 0.23
- relative viability (Dinaciclib + Pictilisib; first compound 0.009487 µM): 0.556
- relative viability (Dinaciclib + Pictilisib; first compound 0.03 µM): 0.578
- relative viability (Dinaciclib + Pictilisib; first compound 0.09487 µM): 0.262
- relative viability (Dinaciclib + Pictilisib; first compound 0.3 µM): 0.233
- relative viability (Dinaciclib + Pemetrexed; first compound 0.009487 µM): 1.12
- relative viability (Dinaciclib + Pemetrexed; first compound 0.03 µM): 0.53
- relative viability (Dinaciclib + Pemetrexed; first compound 0.09487 µM): 0.289
- relative viability (Dinaciclib + Pemetrexed; first compound 0.3 µM): 0.285

Cell Line: PC-14
- relative viability (Dinaciclib + Palbociclib; first compound 0.009487 µM): 0.215
- relative viability (Dinaciclib + Palbociclib; first compound 0.03 µM): 0.0424
- relative viability (Dinaciclib + Palbociclib; first compound 0.09487 µM): 0.0361
- relative viability (Dinaciclib + Palbociclib; first compound 0.3 µM): 0.0423
- relative viability (Dinaciclib + Bortezomib; first compound 0.009487 µM): 0.807
- relative viability (Dinaciclib + Bortezomib; first compound 0.03 µM): 0.109
- relative viability (Dinaciclib + Bortezomib; first compound 0.09487 µM): 0.0534
- relative viability (Dinaciclib + Bortezomib; first compound 0.3 µM): 0.0475
- relative viability (Dinaciclib + Lapatinib; first compound 0.009487 µM): 0.305
- relative viability (Dinaciclib + Lapatinib; first compound 0.03 µM): 0.221
- relative viability (Dinaciclib + Lapatinib; first compound 0.09487 µM): 0.106
- relative viability (Dinaciclib + Lapatinib; first compound 0.3 µM): 0.0778
- relative viability (Dinaciclib + Pictilisib; first compound 0.009487 µM): 0.436
- relative viability (Dinaciclib + Pictilisib; first compound 0.03 µM): 0.145
- relative viability (Dinaciclib + Pictilisib; first compound 0.09487 µM): 0.0318
- relative viability (Dinaciclib + Pictilisib; first compound 0.3 µM): 0.0249
- relative viability (Dinaciclib + Pemetrexed; first compound 0.009487 µM): 0.111
- relative viability (Dinaciclib + Pemetrexed; first compound 0.03 µM): 0.0682
- relative viability (Dinaciclib + Pemetrexed; first compound 0.09487 µM): 0.0557
- relative viability (Dinaciclib + Pemetrexed; first compound 0.3 µM): 0.0571

Cell Line: RERF-LC-KJ
- relative viability (Dinaciclib + Palbociclib; first compound 0.009487 µM): 0.907
- relative viability (Dinaciclib + Palbociclib; first compound 0.03 µM): 0.216
- relative viability (Dinaciclib + Palbociclib; first compound 0.09487 µM): 0.139
- relative viability (Dinaciclib + Palbociclib; first compound 0.3 µM): 0.157
- relative viability (Dinaciclib + Bortezomib; first compound 0.009487 µM): 1.1
- relative viability (Dinaciclib + Bortezomib; first compound 0.03 µM): 0.327
- relative viability (Dinaciclib + Bortezomib; first compound 0.09487 µM): 0.157
- relative viability (Dinaciclib + Bortezomib; first compound 0.3 µM): 0.173
- relative viability (Dinaciclib + Lapatinib; first compound 0.009487 µM): 0.958
- relative viability (Dinaciclib + Lapatinib; first compound 0.03 µM): 0.563
- relative viability (Dinaciclib + Lapatinib; first compound 0.09487 µM): 0.151
- relative viability (Dinaciclib + Lapatinib; first compound 0.3 µM): 0.128
- relative viability (Dinaciclib + Pictilisib; first compound 0.009487 µM): 0.448
- relative viability (Dinaciclib + Pictilisib; first compound 0.03 µM): 0.19
- relative viability (Dinaciclib + Pictilisib; first compound 0.09487 µM): 0.124
- relative viability (Dinaciclib + Pictilisib; first compound 0.3 µM): 0.117
- relative viability (Dinaciclib + Pemetrexed; first compound 0.009487 µM): 0.489
- relative viability (Dinaciclib + Pemetrexed; first compound 0.03 µM): 0.161
- relative viability (Dinaciclib + Pemetrexed; first compound 0.09487 µM): 0.126
- relative viability (Dinaciclib + Pemetrexed; first compound 0.3 µM): 0.121

Cell Line: SK-LU-1
- relative viability (Dinaciclib + Palbociclib; first compound 0.009487 µM): 0.393
- relative viability (Dinaciclib + Palbociclib; first compound 0.03 µM): 0.229
- relative viability (Dinaciclib + Palbociclib; first compound 0.09487 µM): 0.17
- relative viability (Dinaciclib + Palbociclib; first compound 0.3 µM): 0.165
- relative viability (Dinaciclib + Bortezomib; first compound 0.009487 µM): 1.09
- relative viability (Dinaciclib + Bortezomib; first compound 0.03 µM): 0.17
- relative viability (Dinaciclib + Bortezomib; first compound 0.09487 µM): 0.188
- relative viability (Dinaciclib + Bortezomib; first compound 0.3 µM): 0.193
- relative viability (Dinaciclib + Lapatinib; first compound 0.009487 µM): 0.717
- relative viability (Dinaciclib + Lapatinib; first compound 0.03 µM): 0.178
- relative viability (Dinaciclib + Lapatinib; first compound 0.09487 µM): 0.129
- relative viability (Dinaciclib + Lapatinib; first compound 0.3 µM): 0.13
- relative viability (Dinaciclib + Pictilisib; first compound 0.009487 µM): 0.57
- relative viability (Dinaciclib + Pictilisib; first compound 0.03 µM): 0.167
- relative viability (Dinaciclib + Pictilisib; first compound 0.09487 µM): 0.155
- relative viability (Dinaciclib + Pictilisib; first compound 0.3 µM): 0.152
- relative viability (Dinaciclib + Pemetrexed; first compound 0.009487 µM): 0.97
- relative viability (Dinaciclib + Pemetrexed; first compound 0.03 µM): 0.226
- relative viability (Dinaciclib + Pemetrexed; first compound 0.09487 µM): 0.229
- relative viability (Dinaciclib + Pemetrexed; first compound 0.3 µM): 0.185

Cell Line: SW 1573
- relative viability (Dinaciclib + Palbociclib; first compound 0.009487 µM): 0.218
- relative viability (Dinaciclib + Palbociclib; first compound 0.03 µM): 0.0747
- relative viability (Dinaciclib + Palbociclib; first compound 0.09487 µM): 0.0634
- relative viability (Dinaciclib + Palbociclib; first compound 0.3 µM): 0.0773
- relative viability (Dinaciclib + Bortezomib; first compound 0.009487 µM): 0.777
- relative viability (Dinaciclib + Bortezomib; first compound 0.03 µM): 0.104
- relative viability (Dinaciclib + Bortezomib; first compound 0.09487 µM): 0.0824
- relative viability (Dinaciclib + Bortezomib; first compound 0.3 µM): 0.0954
- relative viability (Dinaciclib + Lapatinib; first compound 0.009487 µM): 1.25
- relative viability (Dinaciclib + Lapatinib; first compound 0.03 µM): 0.575
- relative viability (Dinaciclib + Lapatinib; first compound 0.09487 µM): 0.0951
- relative viability (Dinaciclib + Lapatinib; first compound 0.3 µM): 0.0867
- relative viability (Dinaciclib + Pictilisib; first compound 0.009487 µM): 0.452
- relative viability (Dinaciclib + Pictilisib; first compound 0.03 µM): 0.225
- relative viability (Dinaciclib + Pictilisib; first compound 0.09487 µM): 0.0748
- relative viability (Dinaciclib + Pictilisib; first compound 0.3 µM): 0.064
- relative viability (Dinaciclib + Pemetrexed; first compound 0.009487 µM): 0.345
- relative viability (Dinaciclib + Pemetrexed; first compound 0.03 µM): 0.0723
- relative viability (Dinaciclib + Pemetrexed; first compound 0.09487 µM): 0.07
- relative viability (Dinaciclib + Pemetrexed; first compound 0.3 µM): 0.0635

Cell Line: UMC-11
- relative viability (Dinaciclib + Palbociclib; first compound 0.009487 µM): 0.29
- relative viability (Dinaciclib + Palbociclib; first compound 0.03 µM): 0.173
- relative viability (Dinaciclib + Palbociclib; first compound 0.09487 µM): 0.177
- relative viability (Dinaciclib + Palbociclib; first compound 0.3 µM): 0.167
- relative viability (Dinaciclib + Bortezomib; first compound 0.009487 µM): 0.196
- relative viability (Dinaciclib + Bortezomib; first compound 0.03 µM): 0.107
- relative viability (Dinaciclib + Bortezomib; first compound 0.09487 µM): 0.108
- relative viability (Dinaciclib + Bortezomib; first compound 0.3 µM): 0.131
- relative viability (Dinaciclib + Lapatinib; first compound 0.009487 µM): 0.442
- relative viability (Dinaciclib + Lapatinib; first compound 0.03 µM): 0.179
- relative viability (Dinaciclib + Lapatinib; first compound 0.09487 µM): 0.143
- relative viability (Dinaciclib + Lapatinib; first compound 0.3 µM): 0.169
- relative viability (Dinaciclib + Pictilisib; first compound 0.009487 µM): 0.217
- relative viability (Dinaciclib + Pictilisib; first compound 0.03 µM): 0.145
- relative viability (Dinaciclib + Pictilisib; first compound 0.09487 µM): 0.132
- relative viability (Dinaciclib + Pictilisib; first compound 0.3 µM): 0.136
- relative viability (Dinaciclib + Pemetrexed; first compound 0.009487 µM): 0.411
- relative viability (Dinaciclib + Pemetrexed; first compound 0.03 µM): 0.18
- relative viability (Dinaciclib + Pemetrexed; first compound 0.09487 µM): 0.189
- relative viability (Dinaciclib + Pemetrexed; first compound 0.3 µM): 0.146
